Read-outs that look alike come from different tables or passages of the source.
What was measured:
[1] = Sensorial assessment of the bitter-sharp note of menthol in toothpaste by a panel of trained experts; format: in vivo; settings: for bitter-sharp note of the menthol / bitter perception: flavoring agent composition at 1.2 wt. % in toothpaste, usage conditions, expert panel
Method: The flavoring agent compositions obtained in this way were in each case incorporated into a respective standard toothpaste mass with a silicic acid basis in a concentration of 1.2 wt. %, in relation to the overall weight of the resulting toothpaste. The toothpastes were tested by a panel of sensorially trained experts under usage conditions. […] Without the use of anethole in the 2nd formulation the bitter-sharp note clearly emerged and the taste result was perceived overall to be unacceptable.
The flavoring agent compositions obtained in this way were in each case incorporated into a respective standard toothpaste mass with a silicic acid basis in a concentration of 1.2 wt. %, in relation to the overall weight of the resulting toothpaste. The toothpastes were tested by a panel of sensorially trained experts under usage conditions.
(§1) The toothpaste prepared in this way was tested by a panel of sensorially trained experts under usage conditions and compared with the toothpaste containing menthane carboxylic acid-N-(4-methoxyphenyl)-amide (WS-12) according to the 1st formulation of Example 1.2 in respect of the bitter perception and the duration of the cooling sensation of freshness.
The flavoring agent composition obtained in this way was incorporated into a standard toothpaste mass with a silicic acid base in a concentration of 1.2 wt. %, in relation to the overall weight of the resulting toothpaste. The toothpaste was tested by a panel of sensorially trained experts under usage conditions. […] Since through the use of menthane carboxylic acid-N-(4-methoxyphenyl)-amide (WS-12) in combination with the further flavoring agents with a log-Kow value in the range of 1.5-5 (I-menthyl acetate, 1,8-cineole, cinnamaldehyde, and abovementioned corresponding proportions of peppermint oils) a strong reduction in bitterness (of the menthol) was achieved, it was advantageously possible to dispense with the use of anethole to reduce the bitterness. Apart from a pleasant, distinctly fresh, long-lasting taste impression, the toothpaste was also able to impart a distinct, sweet cinnamon note as a result of the proportion of cinnamaldehyde.
The flavoring agent compositions according to Example 4.1 (for a teeth cleaning compound for comparative purposes) and Example 4.2 (for a teeth cleaning compound according to the invention) were in each case incorporated with a concentration of 1.2 wt. %, in relation to the overall weight of the resulting toothpaste into a respective toothpaste mass, containing a proportion of 65 wt. % sodium bicarbonate. […]

[2] = L-menthol given a strength of 100; cited from earlier work
[3] = Sensorial assessment of intensity and duration of the cooling sensation of freshness of toothpaste; format: in vivo; settings: for intensity of coolness perceived: scale of 0 to 10, toothpaste with 1.2 wt. % flavoring composition of Example 1.2 containing 0.5 wt. % cooling agent; for duration of the cooling sensation of freshness: teeth cleaning compound / toothpaste, in words
Method: The proportion of menthane carboxylic acid-N-(4-methoxyphenyl)-amide (WS-12) in the 1st preparation of Example 1.2 was replaced by menthane-3-carboxylic acid-N-ethyl amide (WS-3).
The flavoring agent composition obtained was likewise incorporated into a standard toothpaste mass with a silicic acid base in a concentration of 1.2 wt. %, in relation to the overall weight of the resultant toothpaste.
as §1
The abscissa of FIG. 1 gives the time in minutes elapsing since cleaning of the teeth with the respective toothpaste.
The intensity of coolness perceived was rated on a scale of 0 to 10, with a value of “0” corresponding to the lowest or no intensity of coolness perceived and a value of “[…]” corresponding to the highest intensity of coolness perceived.

[4] = cited from earlier work
cold receptor TRPM8 = cold receptor TRPM8 (Homo sapiens, UniProt Q7Z2W7); settings: cited from earlier work
Solubility of WS-12 = format: physicochemical; settings: in words
Excerpt: In order to bring about the masking of the menthol to a sufficient extent, WS-12 must be dissolved in the flavoring agent composition of the teeth cleaning compound in a sufficient quantity. Our own preliminary investigations have shown that in certain conventional flavoring agent compositions the solubility of the WS-12 is so low that only an insufficient masking (reduction or decrease) in the negative taste impressions of the menthol can be achieved.

[5] = on the philtrum fold (upper lip); cited from earlier work

Sequence of cold receptor TRPM8 (Q7Z2W7 whole entry): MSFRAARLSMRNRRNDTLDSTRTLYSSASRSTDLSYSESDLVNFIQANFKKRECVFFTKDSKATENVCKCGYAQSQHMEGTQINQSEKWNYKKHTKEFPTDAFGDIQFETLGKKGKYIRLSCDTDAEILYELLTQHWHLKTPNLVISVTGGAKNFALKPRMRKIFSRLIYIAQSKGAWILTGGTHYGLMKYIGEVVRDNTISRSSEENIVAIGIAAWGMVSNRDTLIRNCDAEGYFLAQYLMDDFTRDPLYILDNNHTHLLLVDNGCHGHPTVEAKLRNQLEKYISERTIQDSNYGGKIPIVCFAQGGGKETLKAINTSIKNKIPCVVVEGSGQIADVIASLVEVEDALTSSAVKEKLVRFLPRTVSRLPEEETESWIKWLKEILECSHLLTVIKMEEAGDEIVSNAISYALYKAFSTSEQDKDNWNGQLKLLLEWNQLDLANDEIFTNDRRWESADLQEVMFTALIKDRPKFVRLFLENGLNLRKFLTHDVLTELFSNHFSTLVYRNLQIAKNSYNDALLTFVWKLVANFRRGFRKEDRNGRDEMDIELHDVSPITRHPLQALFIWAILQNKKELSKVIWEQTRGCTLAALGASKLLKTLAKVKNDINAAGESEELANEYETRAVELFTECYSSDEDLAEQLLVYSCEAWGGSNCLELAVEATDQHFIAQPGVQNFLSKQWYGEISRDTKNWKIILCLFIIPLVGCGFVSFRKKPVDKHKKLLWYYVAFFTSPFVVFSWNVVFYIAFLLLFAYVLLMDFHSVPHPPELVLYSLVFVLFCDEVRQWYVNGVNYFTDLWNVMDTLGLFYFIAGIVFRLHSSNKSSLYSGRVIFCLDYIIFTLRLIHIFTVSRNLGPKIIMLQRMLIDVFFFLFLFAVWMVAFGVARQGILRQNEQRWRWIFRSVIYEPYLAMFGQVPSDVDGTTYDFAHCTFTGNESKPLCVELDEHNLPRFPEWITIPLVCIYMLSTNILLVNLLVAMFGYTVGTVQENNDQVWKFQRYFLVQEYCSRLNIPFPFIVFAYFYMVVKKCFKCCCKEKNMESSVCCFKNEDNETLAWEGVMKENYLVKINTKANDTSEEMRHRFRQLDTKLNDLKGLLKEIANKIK

SMILES	bitter-sharp note of the menthol / bitter perception [1]	relative cooling strength compared with L-menthol [2]	intensity of coolness perceived ([3]; after 35 minutes)	duration of the cooling sensation of freshness [3]	also measured
CC=Cc1ccc(OC)cc1 [anethole]	neutralized				
CC(C)[C@@H]1CC[C@@H](C)C[C@H]1O [L-menthol]		100			
CCNC(=O)C1CC(C)CCC1C(C)C [WS-3, L-menthane carboxylic acid-N-ethyl amide]	hardly reduced	150	0	only for a relatively short time	reduction or masking of the bitterness or sharpness caused by menthol ([1]; addition to a conventional teeth cleaning compound containing menthol): did not lead to a significant reduction
COc1ccc(NC(=O)C2CC(C)CCC2C(C)C)cc1 (stereo not shown) [WS-12, menthane carboxylic acid-N-(4-methoxyphenyl)-amide]	significantly reduced	150	3	comparatively long-lasting	duration of cooling effect on the upper lip ([4]; remaining on the upper lip): up to half an hour; cooling effect compared with WS-5 ([4]; upper lip): lower than WS-5; effect on the TRPM8 cold receptor (cold receptor TRPM8): stronger effect than WS-5; effect on the TRPM8 cold receptor (cold receptor TRPM8; listed as menthane carboxylic acid-N-(4-methoxyphenyl)-amide): one of the strongest cooling substances; intensity of coolness perceived ([3]; after 60 minutes): ~1.5; solubility (Solubility of WS-12): relatively not readily soluble; cooling duration [5]: under one hour
CCOC(=O)CNC(=O)C1CC(C)CCC1C(C)C [WS-5, N^α-(L-menthane carbonyl)-glycine ethyl ester]		400			

Reference: US9446267B2, “Products comprising a flavoring agent composition” (SYMRISE AG, priority 2009, dated 2016)
